Measurements from patent US7612073B2, “Methods of administering tetrahydrobiopterin, associated compositions, and methods of measuring” (Biomarin Pharmaceutical Inc., priority 2007, dated 2009).
“Also recorded” adds a separate entry of the source.

Columns and labels:
[1] = water adsorption (hygroscopicity) of crystal forms; assay type: physicochemical; conditions: dihydrochloride
[2] = rat, radioactive markers in urine
[3] = physchem; assay type: physicochemical
Source text: Although there is ample literature describing increased bioavailability in fed conditions, this food effect is typically seen with lipophilic (i.e., lipid soluble) water-insoluble drugs and not usually with high water soluble active substance such as BH4. The usual explanation for increases in bioavailability under fed conditions for lipophilic compounds is that high fat meals help solubilize the drug since “like dissolves like” and this makes it available for absorption. Another possible explanation is that high fat meals stimulate the secretion of bile acids which are natural bio-surfactants that help solubilize and emulsify the fats we eat to aid their digestion. These bile acids are also thought to solubilize water-insoluble compounds thereby making them available for absorption. […] Therefore the enhancement of its bioavailability by high fat, high-energy meals is not consistent with such known mechanism.

[4] = physchem; assay type: physicochemical; conditions: for Estimated t1/2 Based on t1/2 Obtained at pH 3 (Min) / half-life: buffer
Protocol: However, administration as a solid or semi-solid dosage form and/or with a high-fat meal may maximize bioavailability by increasing the residence time of BH4 in the acidic milieu of the stomach and upper gastrointestinal tract (GIT) where BH4 is chemically stable. […] At pH 3.1, which is within realm of the typical pH of the stomach in normal volunteers, the stability of BH4 at a concentration of 1 mg/mL is over 3 hours. The chemical stability of BH4 may further increase when the pH of the stomach drops below pH 3.1. Therefore prolonged stomach residence time provides intact drug to the stomach wall for absorption, whereas rapid emptying into the intestine degrades BH4 and is thus not available to be absorbed.
In general, the objective of this study was to evaluate the stability of BH4 in buffer solutions ranging in pH from pH 1 to 7 (See Table 15) and in the presence and absence of antioxidants and with or without inert gas in the reaction solutions (See Table 16).
The stability of BH4 is expected to be temperature-dependent. Therefore, the compound stability was evaluated at 2-8° C., 25° C., 30° C. and 37° C. to support the determination of predictive long-term shelf lives for the compound at different temperatures. Determination of the stability of the compound at the physiologic temperature of 37° C. provides data to support the estimation of the stability lifetime of a formulated oral dosage form in the absorptive regions of the GI tract.
Based on this approximation, pH 1.2 to pH 3 solutions were sampled weekly initially and sampling time corrections were made if necessary after the first 2 data points were collected.
Studies were conducted in pH 1-7 buffer solutions and at 5° C., 25° C., 30° C. and 37° C.

[5] = set-up: species or system rats and monkeys; conditions: rat, monkey, in vivo
Source text: Such variability in absorption of BH4 was also shown in a study described herein on the effect of food on the bioavailability of BH4 in healthy humans.

[6] = safety and tolerability of single oral doses of BH4 in healthy subjects; assay type: in vivo, human
Protocol: Safety was evaluated for all subjects who take at least one dose of BH4.
Safety was evaluated by recording the incidence of adverse events, changes in 12-lead ECG parameters, vital signs and physical examination results, and changes in baseline in laboratory test values.
In this study, an adverse event (AE) was defined as any untoward medical occurrence in a subject or clinical investigation subject administered BH4, at any dose, whether or not it has a causal relationship with the event. An AE can therefore be any unfavorable and unintended sign (including an abnormal laboratory finding), symptom, or disease temporally associated with the use of BH4, whether or not related to BH4. This definition included intercurrent illnesses or injuries and exacerbation (increase in frequency, severity or specificity) of pre-existing conditions.
A serious adverse event (SAE) was defined as any AE that has at least one of the following outcomes: […]

[7] = relative bioavailability of dissolved vs intact tablets and effect of food in healthy subjects; assay type: in vivo, human
Source text: The primary objectives of the study were: (1) to evaluate the relative bioavailability of tetrahydrobiopterin (BH4, sapropterin dihydrochloride) when administered after dissolution of tablet(s) in water or administered as intact tablet(s); (2) to compare the effect of food on the bioavailability of BH4 in healthy subjects. The secondary objective of the study was to assess the safety and tolerability of single oral doses of BH4 in healthy subjects.
This study was an open-label, randomized, three-treatment, six-sequence, three-period crossover study in which 30 subjects were to complete 3 single-dose dosing periods and were randomized to one of six sequence groups (Groups 1, 2, 3, 4, 5, and 6): […]
where all dosing groups received BH4 10 mg/kg orally as follows: a: administered after dissolution of tablet(s) in water given in fasting under fasting conditions b: administered as intact tablet(s) given in fasting under fasting conditions c: administered as intact tablet(s) given 30 minutes after beginning to ingest a high-calorie, high-fat meal in fed conditions Each subject received a single dose of 10 mg/kg of BH4 during each treatment period. A washout period of at least seven days separated each dose administration. A post-study assessment was performed 5-7 days after discharge of the third treatment period. Blood samples for Pharmacokinetic (PK) analysis were drawn at scheduled collection times during each study period: within 30 minutes prior to dose, and 0.5, 1.0, 1.5, 2.0, 2.5, 3.0, 3.5, 4.0, 5.0, 6.0, 8.0, 10.0, 12.0, 18.0, and 24.0 hours post-dose.
Blood (plasma) pharmacokinetic (PK) characteristics were assessed after each dose of study medication. All subjects remained seated in an upright position for 4 hours post-dose. The blood samples were drawn within 30 minutes prior to dose and at 0.5, 1.0, 1.5, 2.0, 2.5, 3.0, 3.5, 4.0, 5.0, 6.0, 8.0, 10.0, 12.0, 18.0, and 24.0 hours post dose. Samples were collected in appropriately labeled 6 mL K2-EDTA purple top Vacutainer® tubes. Blood samples were centrifuged at approximately 3000 rpm at 4° C. for 10 minutes. From the resulting plasma, exactly 1 mL was removed from each sample using a pipet, and placed into an aliquot tube containing 0.1% w/v dithioerythritol. The sample was capped and vortexed for approximately 10 seconds using a VWR Mini Vortexer at speed 6. After completion of these steps, the sample was flash frozen in an isopropyl/dry ice bath and placed in a −70° C. freezer pending analysis.
Pharmacokinetic (PK) analysis of plasma BH4 concentration-time data was performed using non-compartmental methods to obtain estimates of the following PK parameters: • Peak plasma concentration (Cmax) and time to peak concentration (Tmax), obtained directly from the data without interpolation; • λz, the apparent terminal elimination rate constant, determined by log-linear regression of the terminal plasma concentrations; • Area under the plasma concentration-time curve from time zero to the time of last measurable concentration [AUC(0-t)], calculated by the linear trapezoidal method; • The apparent elimination half-life (t½), calculated as 0.693/λz; • Area under the plasma concentration-time curve from time 0 to infinity [AUC(inf)] where AUC(inf)=AUC(0-t)+Ct/λz and Ct is the last measurable concentration. Estimation of Absorption Rate […]
Comparison of the pharmacokinetic parameters Cmax, AUC(0-t), and AUC(inf) for BH4 was conducted using an analysis of variance (ANOVA) model with sequence, subject within sequence, treatment, and period as the classification variables using the natural logarithms of the parameters as the dependent variables. The comparisons of interest were between the dissolved and intact tablet in the fasted state and the intact tablet in the fed and fasted states.

[8] = pharmacokinetics of sapropterin after a single oral administration in cynomolgus monkeys; assay type: in vivo, female cynomolgus monkeys; conditions: monkey, 10 mg/kg oral
Protocol: A single dose of sapropterin (10 mg/kg) was administered orally to female cynomolgus monkeys (3/group) under fasting conditions.

Compound: C[C@H](O)[C@H](O)[C@H]1CNc2nc(N)[nH]c(=O)c2N1.Cl.Cl [Polymorph F, (6R)-L-erythro-tetrahydrobiopterin dihydrochloride]
- water content adsorbed (hygroscopicity) [1]: about 3 percent by weight

Compound: C[C@H](O)[C@H](O)[C@H]1CNc2nc(N)[nH]c(=O)c2N1 [BH4, 6R-(L-erythro)-5,6,7,8-tetrahydrobiopterin]
- rate of GI absorption [2]: 8.8%
- solubility [3]: > 1000 mg/mL
- dependence of rate of degradation of BH4 [4]: concentration-dependent
- effect of sparging on stability of BH4 [4]: substantially enhanced the stability
- stability of BH4 at pH 3.1 ([4]; 1 mg/mL, pH 3.1): over 3 hours
- Estimated t1/2 Based on t1/2 Obtained at pH 3 (Min) ([4]; pH 2): 177690.0 (123.4 days) Min
- Estimated t1/2 Based on t1/2 Obtained at pH 3 (Min) ([4]; pH 3): 17769.0 (12.34 days) Min
- half-life ([4]; pH 3): 12.3 days
- half-life ([4]; pH 3.1): 12.3 days
- Estimated t1/2 Based on t1/2 Obtained at pH 3 (Min) ([4]; pH 4): 1776.9 (1.23 days) Min
- Estimated t1/2 Based on t1/2 Obtained at pH 3 (Min) ([4]; pH 5): 177.7 (0.12 days) Min
- Estimated t1/2 Based on t1/2 Obtained at pH 3 (Min) ([4]; pH 6): 17.7 (0.01 days) Min
- half-life ([4]; pH 6.8): ~0.0104 days
- Estimated t1/2 Based on t1/2 Obtained at pH 3 (Min) ([4]; pH 7): 1.8 Min
- BH4 absorbed in the gut [5]: 8-11%
- study exit assessments, ECG and physical examination evaluations ([6]; human, in vivo): no clinically significant findings
- adverse events assessed as mild ([6]; of 9 AEs): 8 AEs
- adverse events assessed as moderate in severity ([6]; of 9 AEs): 1 AEs
- events judged possibly related to the study drug ([6]; of 9 AEs): 4 events
- events judged unrelated to the study drug ([6]; of 9 AEs): five
- subjects reporting adverse events ([6]; single 10 mg/kg oral doses): 5 subjects
- total adverse events reported ([6]; single 10 mg/kg oral doses): 9 adverse events
- serious adverse events (SAEs) ([6]; single 10 mg/kg oral doses, healthy subjects, 10 mg/kg): no serious adverse events; also recorded: no AEs considered serious
- median and range for Tmax, dissolved vs intact tablets ([7]; 10 mg/kg oral, fasted): essentially the same
- upper limits of 90% confidence intervals of intact-to-dissolved ratios ([7]; 10 mg/kg oral, fasted): greater than 125%
- increase in the extent of absorption, intact tablet compared to dissolved tablet ([7]; 10 mg/kg oral, healthy subjects): ~20%
- average increase in Cmax and AUC, intact tablet relative to dissolved tablets ([7]; fasted conditions): 20%
- increase in Cmax and AUC after a high fat/high calorie meal ([7]; intact tablet): approximately 30%
- median and range for Tmax, fed vs fasted conditions ([7]; intact tablet 10 mg/kg): essentially the same
- upper limits of 90% confidence intervals of fed-to-fasted ratios ([7]; intact tablet 10 mg/kg): greater than 125%
- increase in Cmax and AUC after a high fat/high calorie meal ([7]; tablet dissolved in water): ~80%
- ratio of reduced biopterin to total biopterins during the test period [8]: nearly constant

Compound: C[C@H](O)[C@H](O)[C@H]1CNc2nc(N)[nH]c(=O)c2N1.Cl.Cl [Polymorph K, (6R)-L-erythro-tetrahydrobiopterin dihydrochloride]
- water content adsorbed (hygroscopicity) [1]: about 2.0 percent by weight

Compound: C[C@H](O)[C@H](O)[C@H]1CNc2nc(N)[nH]c(=O)c2N1.Cl.Cl [Polymorph A, (6R)-L-erythro-tetrahydrobiopterin dihydrochloride]
- water content adsorbed (hygroscopicity) [1]: about 3 percent by weight
